Test results taken from ChEMBL document CHEMBL1201862, “PubChem BioAssay data set” (2004).
Calls of active or inactive are those of the source.

Legend:
[1] = Luminescence Cell-Based Dose Response HTS to Identify Inhibitors of Luciferase Translation or Activity in H4-C Neuroglioblastoma Cells. [Related pubchem assays: 1813 (Primary HTS), 1827 (Project Summary)]; format: functional
[2] = Luminescence Cell-Based Dose Response HTS to Identify Activators of Luciferase Translation or Activity in H4-C Neuroglioblastoma Cells. [Related pubchem assays: 1829 (Project Summary), 1814 (Primary HTS)]; format: functional
[3] = Luminescence Cell-Based Dose Retest to Confirm Activators of 5'UTR Stem-Loop Driven Alpha-Synuclein mRNA Translation in H4 Neuroglioblastoma Cells. [Related pubchem assays (depositor defined):AID1813, AID1829]; format: functional
[4] = Luminescence Cell-Based Dose Response HTS to Identify Activators of 5'UTR Stem-Loop Driven Prion Protein mRNA Translation in H4-C Neuroglioblastoma Cells. [Related pubchem assays: 1829 (Project Summary), 1814 (Primary HTS)]; format: functional
[5] = Luminescence Cell-Based Dose HTS Response to Identify Inhibitors of 5'UTR Stem-Loop Driven Prion Protein mRNA Translation in H4-C Neuroglioblastoma Cells. [Related pubchem assays (depositor defined):AID1814, AID1827]; format: functional
[6] = Luminescence Cell-Based Dose Confirmation HTS to Identify Inhibitors of 5'UTR Stem-Loop Driven Alpha-Synuclein mRNA Translation in H4 Neuroglioblastoma Cells. [Related pubchem assays: 1827 (Project Summary), 1813 (Primary HTS)]; format: functional
[7] = target: Ion channel NompC (Danio rerio, UniProt Q7T1G6); assay: Dose response cell-based high-throughput screening assay for agonists of the transient receptor potential channel N1 (TRPN1). [Related pubchem assays (depositor defined):AID1424, AID1448]; format: functional
[8] = target: Mucolipin-3 (Homo sapiens, UniProt Q8TDD5); assay: Fluorescence counterscreen assay for […] agonists: dose response cell-based high-throughput screening assay to identify agonists of the transient receptor potential channel ML3 (TRPML3). [Related pubchem assays: 1424, 1448 ]; format: functional
[9] = target: Nonstructural protein 1 (Influenza A virus, UniProt Q194T2); format: functional, Influenza A virus (A/California/07/2009(H1N1))
[10] = target: T1, Bcl-2-related protein A1 (Mus musculus, UniProt Q07440); format: functional;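 further: confirmatory dose–response counterscreen on Bfl-1, used to check hits from a UBC13 polyubiquitin inhibitor campaign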
T1 sequence (Q07440 whole entry): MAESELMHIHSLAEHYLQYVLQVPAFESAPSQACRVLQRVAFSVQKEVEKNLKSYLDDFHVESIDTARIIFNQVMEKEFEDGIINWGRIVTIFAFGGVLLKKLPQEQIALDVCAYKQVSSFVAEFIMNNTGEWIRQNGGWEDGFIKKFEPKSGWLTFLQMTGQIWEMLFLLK

[11] = target: T2, Ubiquitin-conjugating enzyme E2 N (Homo sapiens, UniProt P61088); format: functional
T2 sequence (P61088 whole entry): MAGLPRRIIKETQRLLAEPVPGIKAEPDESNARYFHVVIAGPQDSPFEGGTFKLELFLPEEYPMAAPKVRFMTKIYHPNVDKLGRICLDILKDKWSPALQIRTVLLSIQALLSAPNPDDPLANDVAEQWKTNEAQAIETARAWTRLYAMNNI

[12] = target: T2, Ubiquitin-conjugating enzyme E2 N; format: functional; remark: listed apart in the source
[13] = target: Peroxisome proliferator-activated receptor gamma/Nuclear receptor coactivator 1 (Homo sapiens, UniProt P37231); assay: (§1) TR-FRET dose response biochemical High Throughput Screening assay for agonists of the steroid receptor coactivator 1 (SRC-1) recruitment by the peroxisome proliferator-activated receptor gamma (PPAR gamma): non-selective agonists. [Related pubchem assays (depositor defined):AID1300, AID1808, AID504735, AID631]; format: protein assay
[14] = target: Peroxisome proliferator-activated receptor gamma/Nuclear receptor coactivator 3 (Homo sapiens, UniProt P37231); assay: as §1, with “3 (SRC-3)” for “1 (SRC-1)”, “assays: 1301 (Confirmation screen.), 1048 (Primary screen.)]” for “assays (depositor defined):AID1300, AID1808, AID504735, AID631]”; format: functional
[15] = target: Peroxisome proliferator-activated receptor gamma/Nuclear receptor coactivator 2 (Homo sapiens, UniProt P37231); assay: TR-FRET dose response biochemical High Throughput Screening assay for agonists of the steroid receptor coactivator 2 (SRC-2) recruitment by the peroxisome proliferator-activated receptor gamma (PPAR gamma): non-selective agonists. [Related pubchem assays: 1297, 1032 ]; format: functional

Q: Which results are given for `Oc1ccccc1/N=N/c1ccccc1O`?
A: EC50 [1]: 1.36 µM (active); EC50 [2]: 0.929 µM (inconclusive); EC50 [3]: 1.77 µM (inconclusive); EC50 [4]: 0.399 µM (inconclusive); EC50 [5]: 1.09 µM (active); EC50 [6]: 1.7 µM (active)

Q: Which results are given for `CCN1C(=O)/C(=C/C=C2\N(CC)c3cc(S(=O)(=O)N(C)C)ccc3N2c2ccccc2)SC1=S`?
A: EC50 [7]: 1.62 µM (active); EC50 [8]: > 29.9 µM (not active); IC50 [9]: 55.3 µM (active)

Q: Which IC50 [10] does the source give for `CCOc1ccc(-c2csc(NC(=O)c3cccc(N4C(=O)CCC4=O)c3)n2)cc1` here?
A: > 20 µM (inactive)

Q: And the IC50 [11]?
A: 15.7 µM (active)

Q: What about the IC50 [12] of the same compound?
A: > 20 µM (inactive)

Q: With `COCCNc1nc2ccccc2nc1NS(=O)(=O)c1ccc(C)cc1C` as the compound, how does the EC50 [13] read?
A: > 79.4 µM (inactive)

Q: What about the EC50 [14] of the same compound?
A: > 79.4 µM (not active)

Q: And the EC50 [15]?
A: > 79.4 µM (not active)
